Where “and” joins values, the source holds several entries; their conditions need not be identical. Equal entries are not always repeated. Entries after “also recorded” stand apart in the source; their conditions may differ.
Columns and labels:
Type in all cases: cell-based, rat
[1] = system: dissociated hippocampal cultures; test: Dendritic beading in cultured neurons after depolarizing KCl pulses; conditions: for dendritic beading after 1 s KCl pulses in cPAF-exposed cultures: CNQX 10 μM together with AP-5 50 μM
Experimental: (§1) Primary hippocampal cultures and dendrite imaging. Dissociated hippocampal cultures from embryonic (E18) rats were prepared as previously described (53), plated on coverslips coated with poly-D-lysine and mouse laminin (reagents from Sigma-Aldrich unless otherwise noted) in Neurobasal plus B-27 media (GIBCO). After one week, 53 mM NaCl was added (to match solutions for physiological experiments) and antioxidants were removed from the media. Experiments were repeated using cultures from multiple dissections. Rodents were housed and treated in compliance with University of Rochester Committee on Animal Resources and NIH policies, and New York State and federal statutes.
(§2) At 20-24 days in vitro (DIV) neurons were transfected with EYFP (Clontech) or mRFP-1 (kind gift of Roger Tsien) vectors driven by CMV promoter, in a 1:2 ratio with Lipofectamine 2000 (Invitrogen). Serial fluorescence images of individual, live neurons (23-30 DIV) before and after exposure to 130 nM cPAF (Biomol) and/or synaptic stimulation by KCl were captured. For 60-hour exposure experiments, a 10 mM stock solution of cPAF (in EtOH) or vehicle was diluted into culture media. Neuronal survival was measured by Hoechst nuclear staining and propidium iodide exclusion.
For acute KCl stimulation experiments, coverslips were perfused in a custom-made chamber (200 μl) with bath solution (in mM: NaCl 139.5, KCl 2.5, CaCl2 2, MgCl2 1, glucose 24, HEPES 5, glycine 0.01, pH 7.3) at […], and exposed cultures to vehicle or cPAF for 20-90 min prior to stimulation. KCl (90 mM) was locally applied over the entire dendritic arbor of EYFP- or mRFP-expressing neurons in three 1- or 5-s pulses (10 s apart) using an 8-channel drug delivery system (ALA Scientific Instruments). In some experiments BN52021 (Biomol) or CNQX and AP-5 were added.
(§3) Dendrite morphology. For in vitro experiments pre- and post-exposure images of the same cells were compared. A neuron was considered beaded if its dendrites developed any focal swellings during the experiments (10, 14), though multiple dendrites were typically involved. Changes in spine number were determined by counting spines on the same dendrites before and after treatment.
(§4) Statistics. Differences in frequencies of dendritic beading were analyzed by Chi square, and changes in dendritic spine number by paired t-test. EPSP slope data were pooled over 10-minute intervals and used two-tailed t-tests to compare between groups or time points. A 0.05 significance level was used for all tests.

CA1 pyramidal neurons [2] = test: Dendritic beading after high-frequency Schaffer collateral stimulation (HFS) in acute hippocampal slices; conditions: for effect on HFS-induced dendritic beading in cPAF-exposed slices: BAPTA 5 mM in pipette, Ac-DEVD-CHO 10 μM intracellular, L-NAME 100 μM, diazoxide 30 μM bath 40 to 60 min prior to HFS; for rate of beading following HFS in cPAF-exposed neurons: 1 μM cPAF plus CV-3988 10 μM, BN52021 2 μM or L-NAME 100 μM
Experimental: (§5) Imaging and LTP in acute hippocampal slices. Brains were removed from 17-30 day-old male Sprague-Dawley rats anesthetized with ketamine (180 μg/g), submerged them in ice-cold solution (in mM: NaCl 125, KCl 5, NaH2PO4 1.25, NaHCO3 28, CaCl2 0.5, MgCl2 4, D-glucose 25, kynurenic acid 1, bubbled with 95% O2/5% CO2), and cut 250 μm coronal slices using a vibroslice. Slices recovered in artificial cerebrospinal fluid (aCSF, in mM: NaCl 125, KCl 2.5, NaH2PO4 1.25, NaHCO3 25, CaCl2 2, MgCl2 1, D-glucose 25, bubbled with 95% O2/5% CO2) for >90 min prior to experiments.
(§6) Slices were transferred to a custom-made recording chamber perfused (1 ml/min) with aCSF containing 1 μM cPAF or vehicle. Membrane potentials from CA1 pyramidal neurons were recorded via whole-cell patch clamp, using 4-6 MΩ electrodes (filled with, mM: KCl 20, potassium gluconate 130, EGTA 0.5, HEPES10, MgSO4 2, ATP 2.5, GTP 0.5, pH 7.3) and a Multiclamp 700A amplifier with pClamp 9 software (Axon Instruments). Afferents were stimulated by constant current pulses (200 μs) via a bipolar stimulating electrode 50-200 μm away in the stratum radiatum. 10 μM bicuculline were included in the aCSF to isolate EPSPs, and adjusted stimulating intensity to elicit EPSPs 30% of maximal. After >10 min of test pulses (every 15 s), […] a high-frequency stimulus (HFS; three 1 s, 100 Hz trains, 20 s apart, at test-pulse intensity), then resumed test pulses for ≧50 min. […] Rising EPSP slope was used instead of peak amplitude as an index of synaptic efficacy to, avoid complication by action potentials evoked by some EPSPs after HFS. Amplitude (maximal sustained depolarization) and duration (at >25% maximal amplitude) of depolarization during HFS were also quantified.
Fluorescent images of dendrites from recorded cells were collected before and after HFS, after allowing 30 μM Alexa Fluor 568 hydrazide (Molecular Probes) in the recording electrode to fill the cell for >20 min. Using an external shutter to limit light exposure, image frames were captured at multiple focal planes and combined optimally-focused portions of these frames to display a composite image.
as §3, §4

CA1 pyramidal neurons [3] = test: EPSP potentiation (LTP) after HFS in acute hippocampal slices, whole-cell patch clamp; conditions: for effect on synaptic potentiation / LTP in cPAF-exposed slices: BAPTA 5 mM, Ac-DEVD-CHO 10 μM, diazoxide 30 μM, PAF-R antagonists
Experimental: as §5, §6, §4

CA1 pyramidal neurons [4] = test: Membrane potential and depolarization during HFS in hippocampal slices
Experimental: as §5
Slices were transferred to a custom-made recording chamber perfused (1 ml/min) with aCSF containing 1 μM cPAF or vehicle. Membrane potentials from CA1 pyramidal neurons were recorded via whole-cell patch clamp, using 4-6 MΩ electrodes (filled with, mM: KCl 20, potassium gluconate 130, EGTA 0.5, HEPES10, MgSO4 2, ATP 2.5, GTP 0.5, pH 7.3) and a Multiclamp 700A amplifier with pClamp 9 software (Axon Instruments). Afferents were stimulated by constant current pulses (200 μs) via a bipolar stimulating electrode 50-200 μm away in the stratum radiatum. 10 μM bicuculline were included in the aCSF to isolate EPSPs, and adjusted stimulating intensity to elicit EPSPs 30% of maximal. […] Amplitude (maximal sustained depolarization) and duration (at >25% maximal amplitude) of depolarization during HFS were also quantified.

[5] = system: dissociated hippocampal cultures; test: 60-hour cPAF exposure of dissociated hippocampal cultures: dendritic beading, spine number, neuronal survival; conditions: 130 nM cPAF, 60-hour exposure
Experimental: as §1, §2, §3, §4

hippocampal slices = test: Rhodamine 123 fluorescence (mitochondrial depolarization) after HFS in hippocampal slices; conditions: 1 μM cPAF
Experimental: The present experiments measure changes in mitochondrial membrane potential during and after HFS in hippocampal slices using the rhodamine 123, a cationic dye that distributes across the mitochondrial membrane in a voltage-sensitive manner. When loaded into hippocampal slices at a dose of 26 μM, rhodamine 123 accumulates in the mitochondria at high concentrations that causes its fluorescence to quench; if the mitochondria are subsequently depolarized, rhodamine 123 is released into the cytoplasm and its fluorescent signal increases. Mitochondrial hyperpolarization, conversely, drives more dye from the cytoplasm into the mitochondria, increasing quenching and reducing the signal. Reliability of this interpretation was confirmed by control experiments using FCCP and oligomycin to respectively depolarize and hyperpolarize the mitochondria.

[6] = 130 nM cPAF, BN52021 10 μM pre-treatment
[7] = cPAF-treated slices plus PAF-R antagonist
[8] = cPAF-exposed slices plus compound (BN52021 2 μM, CV-3988 10 μM, Ac-DEVD-CHO 10 μM, diazoxide 30 μM), 40 to 50 min

With NC(CCCP(=O)(O)O)C(=O)O (stereo not shown) [AP-5] the “dendritic beading after 1 s KCl pulses in cPAF-exposed cultures” value (“dendritic beading after 1 s KCl pulses” for short) [1, 6] was “prevented”.
For O=C(O)CN(CC(=O)O)c1ccccc1OCCOc1ccccc1N(CC(=O)O)CC(=O)O [BAPTA], the “effect on HFS-induced dendritic beading in cPAF-exposed slices” value (“effect on HFS-induced dendritic beading” for short) (CA1 pyramidal neurons [2]) was “prevented dendritic beading; also recorded: eliminated dendritic beading” and the “effect on synaptic potentiation / LTP in cPAF-exposed slices” value (CA1 pyramidal neurons [3]) was “eliminated synaptic potentiation”.
For CC1C(=O)OC2C(O)C34C5CC(C(C)(C)C)C36C(OC(=O)C6O)OC4(C(=O)O5)C12O (stereo not shown) [BN52021], the “rate of beading following HFS in cPAF-exposed neurons” value (from here on “rate of beading following HFS”) (CA1 pyramidal neurons [2]) was 10%, the “cells with dendritic beading elicited by HFS” value (from here on “cells … by HFS”) (CA1 pyramidal neurons [2]; [7]) was 1 of 10 and the “dendritic beading after 1 s KCl pulses” value [1, 6] was “no cells developed beading; also recorded: blocked the increase in vulnerability”. For the same compound, the “cells beaded after 5 s KCl pulses” value ([1]; cPAF-exposed, BN52021 10 μM pre-treatment) was 86% and the “EPSP potentiation following HFS” value (CA1 pyramidal neurons [3]; [8]) was 1.29±0.05 relative to baseline.
N#Cc1cc2[nH]c(=O)c(=O)[nH]c2cc1[N+](=O)[O-] [CNQX] was tested, and the “dendritic beading after 1 s KCl pulses” value [1, 6] was “prevented”.
For CCCCCCCCCCCCCCCCCCNC(=O)OCC(COP(=O)([O-])OCC[n+]1ccsc1)OC (stereo not shown) [CV-3988], the “rate of beading following HFS” value (CA1 pyramidal neurons [2]) was 14%, the “cells … by HFS” value (CA1 pyramidal neurons [2]; [7]) was 1 of 7 and the “EPSP potentiation following HFS” value (CA1 pyramidal neurons [3]; [8]) was 1.07±0.13 relative to baseline.
With COC(=O)[C@@H](N)CCCNC(=N)N[N+](=O)[O-] [L-NAME] the “rate of beading following HFS” value (CA1 pyramidal neurons [2]) was 57% and the “effect on HFS-induced dendritic beading” value (CA1 pyramidal neurons [2]) was “no protection; also recorded: no effect”.
With CCCCCCCCCCCCCCCCOC[C@H](COP(=O)([O-])OCC[N+](C)(C)C)OC(=O)NC [cPAF] the baseline membrane potential (CA1 pyramidal neurons [4]; 1 μM cPAF for up to 7 hours) was −63±3.6 mV, the “duration of depolarization during HFS” value (CA1 pyramidal neurons [4]; cPAF-exposed neurons) was 693 ± 296 ms and the “decrease in numbers of dendritic spines” value [5] was 45.1±5.0% and 45±5%. For the same compound, the “neuronal survival by Hoechst and propidium iodide staining” value [5] was 80.2±4.3%, the “neurons that developed dendritic beading” value ([5]; serially-imaged cells) was 56% and the “recorded neurons with dendritic beading following HFS” value (CA1 pyramidal neurons [2]; 1 μM cPAF for 20 to 60 minutes prior to recording) was 57%. The “delay to appearance of HFS-induced dendritic beading” value (CA1 pyramidal neurons [2]; cPAF-exposed cells) was 15 to 35 min, the “cells … by HFS” value (CA1 pyramidal neurons [2]; cPAF-treated slices) was 11 of 19 and the “cells beaded in response to three 1 s KCl pulses” value ([1]; 130 nM cPAF, acute 20 to 90 min exposure) was 90%. For the same compound, the “increase in rhodamine 123 fluorescence compared to control slices” value (hippocampal slices) was “four-fold larger; also recorded: four-fold greater”, the “peak increase in rhodamine 123 fluorescence above baseline following HFS” value (hippocampal slices; CA1 stratum radiatum, 55 s after start of HFS) was 5.90±1.86% and the “EPSP potentiation following HFS” value (CA1 pyramidal neurons [3]; 1 μM cPAF, cells that did not develop dendritic beading, 40 to 50 min) was 1.60±0.26 relative to baseline. The “EPSP potentiation following HFS” value (CA1 pyramidal neurons [3]; 1 μM cPAF, cells whose dendrites beaded, 40 to 50 min) was 0.84±0.12 relative to baseline.
In the case of Ac-DEVD-CHO, the “effect on HFS-induced dendritic beading” value (CA1 pyramidal neurons [2]) is reported as “prevented dendritic beading”, the “effect on synaptic potentiation / LTP in cPAF-exposed slices” value (CA1 pyramidal neurons [3]) is reported as “failed to rescue LTP; also recorded: failed to restore a lasting potentiation” and the “EPSP potentiation following HFS” value (CA1 pyramidal neurons [3]; cPAF-exposed slices plus Ac-DEVD-CHO 10 μM, 0 to 10 min) is reported as 1.97±0.28 relative to baseline. For the same compound, the “EPSP potentiation following HFS” value (CA1 pyramidal neurons [3]; [8]) was 1.22±0.19 relative to baseline.

Reference: US20090221651A1, “CHEMICAL PRECONDITIONING AS A PREVENTATIVE OR TREATMENT FOR EXCITOTOXIC SYNAPTIC DAMAGE” (priority 2005, published 2009)
